In article PMC12693156, “Antiprotozoal Aminosteroid Alkaloids from Buxus obtusifolia (Mildbr.) Hutch” (Molecules, 2025):
Read-outs that look alike come from different tables or passages of the source.

Assays:
[1] = system: Trypanosoma brucei rhodesiense (Tbr), STIB 900 strain; assay: In vitro activity against Trypanosoma brucei rhodesiense (bloodstream trypomastigotes, STIB 900 strain); assay type: cell-based
Procedure: (§1) In vitro biological activity against Trypanosoma brucei rhodesiense (bloodstream trypomastigotes, STIB 900 strain), Plasmodium falciparum (intraerythrocytic form, NF54 strain) and cytotoxicity assay against rat skeletal myoblasts (L6 cell line) were carried out at the Swiss Tropical and Public Health Institute (Swiss TPH, Allschwil, Switzerland) in accordance with the established standard procedures, in exactly the same manner and with the same cell lines as described recently.

[2] = system: Plasmodium falciparum (Pf), NF54 strain; assay: In vitro activity against Plasmodium falciparum (intraerythrocytic form, NF54 strain); assay type: cell-based; conditions: for IC50: Plasmodium falciparum
Procedure: as §1

[3] = Cytotoxicity assay against rat skeletal myoblasts (L6 cell line); assay type: cell-based
Procedure: as §1

[4] = system: Trypanosoma brucei rhodesiense (Tbr), STIB 900 strain; set-up: method as in PMID 40076324; conditions: separately tested in a recent study; cited from earlier work
[5] = system: Plasmodium falciparum (Pf), NF54 strain; set-up: method as in PMID 40076324; conditions: separately tested in a recent study; cited from earlier work
[6] = Trypanosoma brucei rhodesiense, mean of two separate IC50 determinations ± absolute deviation, compounds tested as bis- or mono-trifluoroacetates, read-out: Tbr IC50
[7] = NF54, mean of two separate IC50 determinations ± absolute deviation, compounds tested as bis- or mono-trifluoroacetates, read-out: Pf IC50

Question: With `CN[C@H]1[C@H](O)C[C@]23C[C@]24CC[C@]2(C)[C@@H]([C@H](C)N(C)C)CC[C@@]2(C)[C@@H]4CC[C@H]3C1(C)C` [Compound 1, cycloprotobuxoline-C] as the molecule, how does the IC50 [1, 6] read?
Answer: The IC50 was 6.7 ± 3.3 µM.

Question: And the IC50 [2, 7]?
Answer: Its IC50 is 28 ± 0.7 µM.

Question: And the IC50 [3]?
Answer: The IC50 was over 100 µM.

Question: What does the source list for `CN[C@H]1[C@H](O)C[C@]23C[C@]24CC[C@]2(C)[C@@H]([C@H](C)N(C)C)CC[C@@]2(C)[C@@H]4CC[C@H]3[C@]1(C)COC(=O)c1cc(OC)c(OC)c(OC)c1` [Compound 5, 29-trimethoxybenzoyloxy cycloprotobuxoline-C]?
Answer: IC50 [1, 6]: 1.6 ± 0.7 µM; IC50 [2, 7]: 0.5 µM; IC50 ([2]; NF54, isolated compounds, tested as trifluoroacetate salts, molar IC50 calculated with mass of the salt, read-out: IC50 against Pf (antiplasmodial activity)): < 1 µM

Question: For `CN[C@@H](C)[C@H]1CC[C@@]2(C)[C@@H]3C=C[C@H]4C(C)(C)[C@@H](N(C)C)CC[C@@]45C[C@@]35CC[C@]12C` [Compound 12, deoxycyclovirobuxeine-B], which IC50 [1, 6] is on record?
Answer: The IC50 was 0.8 ± 0.3 µM.

Question: And the IC50 ([1]; Trypanosoma brucei, isolated compounds, tested as trifluoroacetate salts, molar IC50 calculated with mass of the salt, read-out: IC50 against Tbr (antitrypanosomal activity))?
Answer: The IC50 was under 1 µM.

Question: What about the IC50 [2, 7] of the same molecule?
Answer: Its IC50 is 5.4 ± 1.2 µM.

Question: With `CN[C@@H](C)[C@H]1CC[C@@]2(C)[C@@H]3CC[C@H]4[C@]5(C)COCN(C)[C@H]5CC[C@@]45C[C@@]35CC[C@]12C` [Compound 15, N20-demethyl deoxycyclobuxoxazine-A] as the molecule, how does the IC50 [1, 6] read?
Answer: Its IC50 is 6.6 ± 3.5 µM.

Question: And the IC50 [2, 7]?
Answer: The IC50 was 5.8 ± 0.4 µM.

Question: Which IC50 [1, 6] does the source give for `CN[C@H]1CC[C@]23C[C@]24CC[C@]2(C)[C@@H](C(C)=O)[C@H](OC)C[C@@]2(C)[C@@H]4CC[C@H]3C1` [Compound 16, obtusibuxeine-A] here?
Answer: Its IC50 is 22 ± 1.7 µM.

Question: And the “SI Tbr (selectivity index)” value ([1]; cytotoxic IC50 (L6) / IC50 Tbr)?
Answer: Its value is 2.

Question: What about the IC50 [2, 7] of the same molecule?
Answer: Its IC50 is 13 ± 1.4 µM.

Question: And the “SI Pf (selectivity index)” value ([2]; cytotoxic IC50 (L6) / IC50 Pf)?
Answer: The value was 3.

Question: And the IC50 [3]?
Answer: Its IC50 is 45 ± 5.1 µM.

Question: Which IC50 [1, 6] does the source give for `CC(=O)OC1C2OC3(C=CC(NC(=O)c4ccccc4)C(C)(C)C13)CC1=CCC3(C)C(C(C)N(C)C)C(O)CC3(C)C12` (stereo not drawn) [Compound 21, obtusiepoxamine-A] here?
Answer: Its IC50 is 2.2 ± 0.2 µM.

Question: What about the IC50 [2, 7] of the same molecule?
Answer: Its IC50 is 10 ± 1.1 µM.

Question: For `CC(=O)O[C@H]1[C@@H](O)[C@@H]2C(=CC[C@]3(C)[C@@H]([C@H](C)N(C)C)CC[C@@]23C)CC2=CC[C@H](NC(=O)c3ccccc3)C(C)(C)[C@@H]21` [Compound 23, 16-deoxyobtusidienolamine-A], which IC50 [1, 6] is on record?
Answer: The IC50 was 6.5 ± 0.4 µM.

Question: And the IC50 [2, 7]?
Answer: The IC50 was 30 ± 6.5 µM.

Question: Which results are given for `CCN(CC)CCCC(C)Nc1ccnc2cc(Cl)ccc12` (stereo not drawn) [chloroquine, reference compound]?
Answer: IC50 ([2]; NF54, read-out: IC50 Pf): 2 ng/mL; IC50 ([2]; NF54, read-out: Pf IC50): 0.012 µM

Question: Which IC50 ([1]; Trypanosoma brucei, read-out: IC50 Tbr) does the source give for `Nc1nc(N)nc(Nc2ccc([As]3SCC(CO)S3)cc2)n1` (stereo not drawn) [melarsoprol, reference compound] here?
Answer: Its IC50 is 4 ng/mL.

Question: And the IC50 ([1]; Trypanosoma brucei, read-out: Tbr IC50)?
Answer: The IC50 was 0.013 ± 0.001 µM.

Question: For `COc1cc([C@@H]2c3cc4c(cc3[C@H](O)[C@H]3COC(=O)[C@H]23)OCO4)cc(OC)c1OC` [podophyllotoxin, reference compound], which IC50 ([3]; Table 1, crude extracts and acid-base fractions, mean of two determinations ± absolute deviation, read-out: IC50 Cytotox. L6) is on record?
Answer: Its IC50 is 7 ± 2 ng/mL.

Question: With `O=C([O-])C(F)(F)F.[Na+]` [sodium trifluoroacetate] as the molecule, how does the “activity against the target parasites (Tbr)” value [4] read?
Answer: The value was “inactive”.

Question: What about the “activity against the target parasites (Pf)” value [5] of the same molecule?
Answer: Its value is “inactive”.
